Test results: publication PMC10385416, “Iron-Gallic Acid Peptide Nanoparticles as a Versatile Platform for Cellular Delivery with Synergistic ROS Enhancement Effect” (Pharmaceutics, 2023)
Ends that are not written are not given here. Peptide text beside a SMILES is read from it.

Key:
[1] = tested on: HeLa cells; assay: Cell viability (CellTiter-Glo assay), HeLa; assay type: cell-based, human; settings: 10 μM, 72 h
Method: The CellTiter-Glo® Luminescent Cell Viability Assay was performed to determine the viability of HeLa or N2a cells after treatment with IGPNs or the individual components. One day prior to the treatments, HeLa or N2a cells were seeded into 96-well plates at a density of 5000 cells/well. On the next day, the medium in each well was replaced with 90 μL of fresh medium, and 10 μL of nanoparticles or control solutions (free peptides, Fe, FePVP) was added to each well corresponding to the specified final concentrations of the peptide or Fe^3+, respectively. The supernatant was removed after 72 h incubation, and 25 µL of medium as well as 25 µL of CellTiter-Glo reagent were added to each well. The plate was gently agitated for 30 min at RT, and the luminescence signal (relative light units, RLU) was recorded by a Centro LB 960 plate reader luminometer (Berthold Technologies, Bad Wildbad, Germany). The relative cell viability (in percentage) was calculated relative to control wells treated with HBG buffer as ([RLU] test/[RLU] control) × 100%. All experiments were performed in triplicate.

[2] = Methylene blue assay of HO• production (Fenton reaction); settings: pH 4, H2O2, same Fe content (36 µg Fe3+), UV-Vis every 5 min over 6 h
Method: MB assays were used to measure the HO^• production efficacy of IGPNs. IGPNs (36 µg Fe^3+) were mixed with MB (1.5 mL, 10 µg L^−1) and H2O2 (1 mL), and H2O was added to a final volume of 3 mL. The absorbance at 664 nm was recorded with a Cary 3500 UV–Vis Spectrophotometer every 5 min over 6 h.
To verify the hypothesized Fenton reaction of IGPNs, H2O2 was used as a source of hydroxyl radicals (HO^•) and to simulate the tumor microenvironment. The generation of HO^• and degradation of methylene blue (MB) upon exposure to H2O2 and different samples adjusted to the same Fe content (IGPNs or FeCl3 solution) was monitored by UV–Vis spectrometry. At pH 4 (Figure 7A), the decrease of absorbance at 664 nm was accelerated in the presence of Fe-A4**, FePVP-A4**, or Fe^3+. At the favorable acidic pH, no differences in reaction rates were observed between IGPNs and Fe^3+, since the content of Fe^3+ is obviously sufficient to drive the reaction under these conditions. In contrast, at pH 7.4, the absorbance decline was clearly more pronounced in case of IGPNs (Figure 7B). This phenomenon could be explained by an accelerated conversion of Fe^3+ to Fe^2+ in the presence of GA.

| Compound | cytotoxicity / tolerability in words [1] | decrease of methylene blue absorbance at 664 nm (HO• generation) at pH 4 [2] |
| --- | --- | --- |
| NCCCC[C@H](NC(=O)[C@@H]1CCCN1C(=O)[C@@H](N)CCC(N)=O)C(=O)O [SIO] (H-Gln-Pro-Lys-OH) | not able to mediate significant cytotoxicity | – |
| O.O.O.O.O.O.[Cl-].[Cl-].[Cl-].[Fe+3] [Fe^3+, iron (III) chloride hexahydrate] | – | accelerated |
| AVPIAQK [AVP] | not able to mediate significant cytotoxicity | – |
